Here are results for four molecules from ChEMBL document CHEMBL1153557, “Effect of calcineurin inhibitors on posaconazole blood levels as measured by the MVista microbiological assay” (Antimicrob Agents Chemother, 2008).

SMILES strings stand for the structures. The source made the active and inactive calls. No cut-off for these calls is given here.

Experiment [1] relates to Kluyveromyces marxianus. Nature of the experiment: Antifungal activity against Candida kefyr ATCC 46764 at 3 ug/ml after 14 to 18 hrs. Format: functional. Particulars: read-out: IZ.
The test system of experiment [2] is Kluyveromyces marxianus. Nature of the experiment: Antifungal activity against Candida kefyr ATCC 46764 at 0.5 ug/ml after 14 to 18 hrs. It counts as functional. Particulars: read-out: IZ.
The test system of experiment [3] is Kluyveromyces marxianus. Nature of the experiment: Antifungal activity against Candida kefyr ATCC 46764 at 1.5 ug/ml after 14 to 18 hrs. It counts as functional. As to conditions: read-out: IZ.
The species entered for another experiment is Homo sapiens. As to the kind of experiment: Effect on […] level in plasma of transplant patient by MVista microbiological assay. It counts as functional.
Experiment [4] has as its system Kluyveromyces marxianus. As to the kind of experiment: Antifungal activity against Candida kefyr ATCC 46764 after 14 to 18 hrs. Format: functional, organism-based.

`C/C=C/C[C@@H](C)[C@@H](O)[C@H]1C(=O)N[C@@H](CC)C(=O)N(C)CC(=O)N(C)[C@@H](CC(C)C)C(=O)N[C@@H](C(C)C)C(=O)N(C)[C@@H](CC(C)C)C(=O)N[C@@H](C)C(=O)N[C@H](C)C(=O)N(C)[C@@H](CC(C)C)C(=O)N(C)[C@@H](CC(C)C)C(=O)N(C)[C@@H](C(C)C)C(=O)N1C` [CYCLOSPORINE]: the zone of inhibition at 3 µg/mL with Kluyveromyces marxianus [1] worked out at 23.3 mm. The zone of inhibition at 0.5 µg/mL in the experiment with Kluyveromyces marxianus [2] came out at 15.5 mm. Moreover, in the experiment with Kluyveromyces marxianus [3], the zone of inhibition at 1.5 µg/mL stood at 20.5 mm.
Consider `CC[C@@H]([C@H](C)O)n1ncn(-c2ccc(N3CCN(c4ccc(OC[C@@H]5CO[C@@](Cn6cncn6)(c6ccc(F)cc6F)C5)cc4)CC3)cc2)c1=O` [POSACONAZOLE], for which the zone of inhibition at 3 µg/mL with Kluyveromyces marxianus [1] was 23.2 mm. For the same molecule, in the experiment on Kluyveromyces marxianus [2], the zone of inhibition at 0.5 µg/mL worked out at 16.5 mm. The zone of inhibition at 1.5 µg/mL with Kluyveromyces marxianus [3] amounted to 20.6 mm.
For the molecule `CO[C@H]1C[C@@H]2CC[C@@H](C)[C@@](O)(O2)C(=O)C(=O)N2CCCC[C@H]2C(=O)O[C@H]([C@H](C)C[C@@H]2CC[C@@H](O)[C@H](OC)C2)CC(=O)[C@H](C)/C=C(\C)[C@@H](O)[C@@H](OC)C(=O)[C@H](C)C[C@H](C)/C=C/C=C/C=C/1C` [SIROLIMUS], the Activity in the experiment listed under Homo sapiens was found to be 7.1 ng/mL.
For `C=CC[C@@H]1/C=C(\C)C[C@H](C)C[C@H](OC)[C@H]2O[C@@](O)(C(=O)C(=O)N3CCCC[C@H]3C(=O)O[C@H](/C(C)=C/[C@@H]3CC[C@@H](O)[C@H](OC)C3)[C@H](C)[C@@H](O)CC1=O)[C@H](C)C[C@@H]2OC` [TACROLIMUS ANHYDROUS], the Activity in the experiment listed under Homo sapiens worked out at 4.2 ng/mL. Moreover, the outcome with Kluyveromyces marxianus [4] was inactive.
